Data reported in patent publication US20210207099A1, “METHODS AND COMPOSITIONS FOR GENERATING CELLS OF ENDODERMAL LINEAGE AND BETA CELLS AND USES THEREOF” (priority 2018, published 2021).

How the values were obtained:
Stage 6 cells [1] = test: Perifusion GSIS with sequential secretagogue challenges; assay type: cell-based, human; settings: for insulin secretion during second challenge, secretagogue added to 20 mM glucose: 30 mM KCL, 20 mM L-Arginine, 300 μM Tolbutamide, 100 μM IBMX, 10 nM Extendin-4
Protocol: The system used a high precision 8-channel dispenser pump (ISMATEC; ISM931C) in conjunction with 0.015″ inlet and outlet two-stop tubing (ISMATEC; 070602-04i-ND) connected to 275-μl cell chamber (BioRep; Pen-Chamber) and dispensing nozzle (BioRep; PERI-NOZZLE) using 0.04″ connection tubbing (BioRep; Peri-TUB-040). Solutions, tubing, and cells were maintained at 37° C. in a water bath. Stage 6 clusters and cadaveric human islets were washed with KRB twice and resuspended in 2 mM glucose KRB. Cells were then loaded onto a Biorep perifusion chamber sandwiched between two layers of Bio-Gel P-4 polyacrylamide beads (Bio-Rad; 150-4124). Cells were perfused with 2 mM glucose KRB for 90 min prior to sample collection for equilibration. For single high glucose challenges, sample collection was started with cells exposed to 2 mM glucose KRB for 12 min, followed by 24 min of 20 mM glucose KRB, and back to 2 mM glucose KRB for an additional 12 min. For multiple secretagogue challenges, sample collection was started with cells exposed to 2 mM glucose KRB for 6 min, followed by 12 min of 20 mM glucose KRB, 6 min 2 mM glucose KRB, 12 min of 20 mM glucose KRB plus treatment, and finally 6 min of 2 mM glucose KRB. Treatments with multiple secretagogues were as follows: 20 mM glucose only, 10 nM Extendin-4 (MilliporeSigma; E7144), 100 μM IBMX (MilliporeSigma; 15879), 300 μM Tolbutamide (MilliporeSigma; T0891), 20 mM L-Arginine (MilliporeSigma; A5006), and 30 mM KCL (Thermo Fisher; BP366500). Effluent was collected at a 100 μl/min flow rate with 2-4 min collection points. After sample collection, clusters were collected and lysed in 10 mM Tris (MilliporeSigma; T6066), 1 mM EDTA, and 0.2% Triton-X 100 solution and DNA was quantified using Quant-iT Picogreen dsDNA assay kit (Invitrogen; P7589). Insulin secretion was quantified using the Human Insulin Elisa kit.

plated stage 4 cells = test: qRT-PCR and immunostaining of plated stage 4 cells treated with cytoskeletal modifying compounds; assay type: cell-based, human
Description: For experiments investigating the effects of plating pancreatic progenitors, cells were differentiated with the suspension protocol for stages 1-3. At the end of stage 3, clusters were single cell dispersed with TrypLE and plated onto tissue culture plates coated with various ECM proteins at 0.625×10^6 cells/cm^2. Differentiation media for the remainder of this hybrid protocol were the same as for the suspension protocol with the exception that Y-27632 and Activin A were omitted on days 2-5 of stage 4. Additional compounds were added as indicated in each experiment: 1 μM latrunculin A (Cayman Chemical, 10010630), 1 μM latrunculin B (Cayman Chemical, 10010631), 1 μM cytochalasin D (MilliporeSigma, C2618), 1 μM jasplakinolide (Cayman Chemical, 11705), 10 μM blebbistatin (MilliporeSigma, 203389), 1 μM nocodazole (Cayman Chemical, 13857), 1 μM Y-15 (Cayman Chemical, 14485), 10 μM Y-27632, and 10 μM GDC-0994 (Selleckchem, S7554). A variety of ECM coatings were initially tested with this plating methodology, including collagen I (Corning, 354249), collagen IV (Corning, 354245), fibronectin (Gibco, 33016-015), vitronectin (Gibco, A14700), matrigel (Corning, 356230), gelatin (Fisher, G7-500), and laminins 111, 121, 211, 221, 411, 421, 511, and 521 (Biolamina, LNKT-0201). All subsequent experiments with this hybrid protocol were performed on collagen I.
Brightfield images were taken with a Leica DMi1 inverted light microscope, and fluorescence images were captured with a Nikon A1Rsi confocal microscope. For immunostaining, cells were fixed with 4% paraformaldehyde (PFA) at room temperature for 30 minutes. They were then blocked and permeabilized for 45 minutes at room temperature with an immunocytochemistry (ICC) solution consisting of 0.1% triton X (Acros Organics, 327371000) and 5% donkey serum (Jackson Immunoresearch, 017000-121) in PBS (Corning, 21-040-CV). Samples were then incubated with primary antibodies diluted in ICC solution overnight at 4° C., washed with ICC, incubated with secondary antibodies diluted in ICC for 2 hours at room temperature, and stained with DAPI for 15 minutes at room temperature. For histological sectioning, whole SC-β cell clusters generated with the planar protocol and mouse kidneys containing transplanted cells were fixed overnight with 4% PFA at 4° C. The in vitro clusters were also embedded in Histogel (Thermo Scientific, hg-4000-012). These samples were then paraffin-embedded and sectioned by the Division of Comparative Medicine (DCM) Research Animal Diagnostic Laboratory Core at Washington University in St. Louis. Paraffin was removed from sectioned samples with Histoclear (Thermo Scientific, C78-2-G), and antigen retrieval was carried out in a pressure cooker (Proteogenix, 2100 Retriever) with 0.05 M EDTA (Ambion, AM9261). Slides were blocked and permeabilized with ICC solution for 45 minutes, incubated with primary antibodies in ICC solution overnight at 4° C., and incubated with secondary antibodies for 2 hours at room temperature. Slides were then sealed with DAPI Fluoromount-G (SouthernBiotech, 0100-20).
RNA was extracted from either whole clusters or cells directly on the plate with the RNeasy Mini Kit (Qiagen, 74016). Samples were treated with a DNAse kit (Qiagen, 79254) during extraction. The High Capacity cDNA Reverse Transcriptase Kit (Applied Biosystems, 4368814) was used to synthesize cDNA on a thermocycler (Applied Biosystems, A37028). The PowerUp SYBR Green Master Mix (Applied Biosystems, A25741) was used on a StepOnePlus (Applied Biosystems), and real time PCR results were analyzed using a ΔΔCt methodology. TBP and GUSB were both used as housekeeping genes. Primer sequences were as follows.

[2] = tested on: TGFβ signaling (phosphorylated SMAD); test: Western blot of SMAD 2/3 phosphorylation in Stage 6 cells; assay type: cell-based, human; settings: Alk5i versus DMSO
Protocol: Protein was extracted from cell clusters after washing with PBS by placing in western blot lysis buffer consisting 50 mM HEPES, 140 mM NaCl (MilliporeSigma; 7647-14-5), 1 mM EDTA (MilliporeSigma, 1233508), 1% Triton X-100, 0.1% Na-deoxycholate (MilliporeSigma: D6750), 0.1% SDS (ThermoScientific; 24730020), 1 mM Na3VO4 (MilliporeSigma; 450243), 10 mM NaF (MilliporeSigma; S7920), and 1% Protease Inhibitor Cocktail (MilliporeSigma; p8340), incubating on a shaker for 15 min at 4° C., and centrifuging at 10000 RCF for 10 min at 4° C. Protein amount was quantified with the Pierce BCA Protein Assay (Thermo Scientific; 23228). Protein (30 μg) was loaded onto a 4-20% gradient polyacrylamide gel (Invitrogen; SP04200BOX), resolved by electrophoresis, and transferred onto a 0.45 μm nitrocellulose membrane (BioRad; 1620115). The nitrocellulose membrane was blocked with Blotting Grade Blocker (BioRad; 170-6404) and incubated with rabbit-anti-phospho-SMAD⅔ 1:1000 (Cell Signaling Technologies; 8828) and rabbit-anti-Actin 1:1000 (Santa Cruz Biotechnology; SC1616) antibodies in blocker overnight at 4° C. Membrane was washed and stained with rabbit secondary antibody 1:2500 (Jackson Immuno Research Laboratories; 211-032-171) in blocker for 2 hr at 4° C. and developed using SuperSignal West Femto (Thermo Scientific; 34096). Images were taken on an Odyssey FC (Li-COR). After imaging, the nitrocellulose membrane was stripped using Restore Western Blot Stripping Buffer (Thermo Scientific; 21059), incubated with rabbit-anti-SMAD⅔ (Cell Signaling Technologies; 8685) antibody overnight at 4° C., washed and stained with rabbit secondary antibody 1:2500 in blocker for 2 hr 4° C., developed using SuperSignal West Femto, and imaged using the Odyssey FC.

Stage 6 cells [3] = tested on: Stage 6 cells
Protocol: (§1) Assays were performed by collecting ˜20-30 stage 6 clusters or cadaveric human islets, washed twice with KRB buffer (128 mM NaCl, 5 mM KCl, 2.7 mM CaCl2) 1.2 mM MgSO4, 1 mM Na2HPO4, 1.2 mM KH2PO4, 5 mM NaHCO3, 10 mM HEPES (Gibco; 15630-080), and 0.1% BSA), resuspended in 2 mM glucose KRB, and placed into transwells (Corning; 431752) in 24-well plates. Clusters were incubated at 2 mM glucose KRB for a 1 hr equilibration. The transwell was then drained and transferred into a new 2 mM glucose KRB well, discarding the old KRB solution. Clusters were again incubated for 1 hr at low glucose and then the transwell is drained and transferred into a new 2, 5.6, 11.1, or 20 mM glucose KRB well, retaining the old 2 mM glucose KRB. Clusters were then incubated for 1 hr at high glucose and then the transwell was drained and the old glucose KRB was retained. The retained KRB was run with the Human Insulin Elisa (ALPCO; 80-INSHU-E10.1) to quantify insulin secretion. The cells were single-cell dispersed by TrypLE treatment, counted on a Vi-Cell XR, and viable cell counts used to normalize insulin secretion.

Stage 5 cells = tested on: Stage 5 cells
Protocol: To initiate differentiation, undifferentiated cells were single-cell dispersed using Accutase and seeded at 6×10^5 cells/mL in mTeSR1+10 μM Y27632 in a 30-ml spinner flask. Cells were then cultured for 72 hr in mTeSR1 and then cultured in the following differentiation media. Stage 1 (3 days): S1 media+100 ng/ml Activin A (R&D Systems; 338-AC)+3 μM Chir99021 (Stemgent; 04-0004-10) for 1 day. S1 media+100 ng/ml Activin A for 2 days. Stage 2 (3 days): S2 media+50 ng/ml KGF (Peprotech; AF-100-19). Stage 3 (1 day): S3 media+50 ng/ml KGF+200 nM LDN193189 (Reprocell; 040074)+500 nM PdBU (MilliporeSigma; 524390)+2 μM Retinoic Acid (MilliporeSigma; R2625)+0.25 μM Sant1 (MilliporeSigma; S4572)+10 μM Y27632. Stage 4 (5 days): S4 media+5 ng/mL Activin A+50 ng/mL KGF+0.1 μM Retinoic Acid+0.25 μM SANT1+10 μM Y27632. Stage 5 (7 days): S5 media+10 μM ALK5i II (Enzo Life Sciences; ALX-270-445-M005)+20 ng/mL Betacellulin (R&D Systems; 261-CE-050)+0.1 μM Retinoic Acid+0.25 μM SANT1+1 μM T3 (Biosciences; 64245)+1 μM XXI (MilliporeSigma; 595790). Stage 6 (7-35 days): ESFM.
as §1
Clusters were single-cell dispersed with TrypLE, fixed with 4% paraformaldehyde for 30 min at 4° C., blocked and permeabilized with staining buffer for 30 min at 4° C., incubated with primary antibodies in staining buffer overnight at 4° C., incubated with secondary antibodies in staining buffer for 2 hr at 4° C., resuspended in staining buffer, and analyzed on an LSRII (BD Biosciences) or X-20 (BD Biosciences). Dot plots and percentages were generated using FlowJo. All antibodies were used at 1:300 dilution except where noted. The antibodies used were: rat-anti-C-peptide, mouse-anti-nkx6.1 (1:100), mouse-anti-glucagon, rabbit-anti-somatostatin, rabbit-anti-chromogranin A (1:1000), goat-anti-pdx1, anti-rat-alexa fluor 488, anti-mouse-alexa fluor 647 (Invitrogen; a31571), anti-rabbit-alexa fluor 647 (Invitrogen; a31573), anti-goat-alexa fluor 647 (Invitrogen; a21447), anti-rabbit-alexa fluor 488 (Invitrogen; a21206).
RNA was extracted using the RNeasy Mini Kit (Qiagen; 74016) with DNase treatment (Qiagen; 79254), and cDNA was synthesized using High Capacity cDNA Reverse Transcriptase Kit (Applied Biosystems; 4368814). Real-time PCR reactions were performed in PowerUp SYBR Green Master Mix (Applied Biosystems; A25741) on a StepOnePlus (Applied Biosystems) and analyzed using ΔΔCt methodology. TBP was used as a normalization gene.

[Cl-].[K+] [KCl]
response of Stage 6 cells to KCl challenge compared to human islets (Stage 6 cells [1]; 30 mM KCL with 20 mM glucose): stronger than in human islets | insulin secretion during second challenge, secretagogue added to 20 mM glucose (Stage 6 cells [1]): largest increases

C/C1=C\[C@H](C)C[C@H](C)OC(=O)C[C@H](c2ccc(O)cc2)NC(=O)[C@@H](Cc2c(Br)[nH]c3ccccc23)N(C)C(=O)[C@H](C)NC(=O)[C@@H](C)C1 [jasplakinolide]
premature NEUROG3 expression in reaggregated clusters (plated stage 4 cells; added to pancreatic progenitors during reaggregation after dispersion): attenuated premature NEUROG3 expression

C/C1=C/C(=O)O[C@@H]2C[C@@H](CC[C@H](C)/C=C\CC1)O[C@@](O)([C@@H]1CSC(=O)N1)C2 [Latrunculin B]
dose response of NEUROG3 expression (plated stage 4 cells; added during stage 4, qRT-PCR): increased NEUROG3 expression in a dose-dependent manner | concentration required relative to latrunculin A to achieve a similar effect on NEUROG3 (plated stage 4 cells; plated HUES8, stage 4): ~10 ×

N=C(N)NCCC[C@H](N)C(=O)O [L-Arginine]
insulin secretion during second challenge, secretagogue added to 20 mM glucose (Stage 6 cells [1]): largest increases

exendin-4
insulin secretion during second challenge, secretagogue added to 20 mM glucose (Stage 6 cells [1]): increased insulin secretion over high glucose alone

CC(C)Cn1c(=O)n(C)c(=O)c2[nH]cnc21 [3-isobutyl-1-methylxanthine]
insulin secretion during second challenge, secretagogue added to 20 mM glucose (Stage 6 cells [1]): increased insulin secretion over high glucose alone

CCCCNC(=O)NS(=O)(=O)c1ccc(C)cc1 [Tolbutamide]
insulin secretion during second challenge, secretagogue added to 20 mM glucose (Stage 6 cells [1]): increased insulin secretion over high glucose alone

Cc1cccc(-c2[nH]ncc2-c2ccc3ncccc3n2)n1 [Alk5i, Alk5 inhibitor type II]
phosphorylated SMAD [2]: diminished phosphorylated SMAD | GSIS in a static assay with inclusion during Stage 6 (Stage 6 cells [3]; Alk5i during Stage 6): relatively weak but statistically significant GSIS | insulin secretion in the dynamic GSIS assay (Stage 6 cells [3]; Alk5i during Stage 6): dramatically reduced insulin secretion | proinsulin/insulin ratio (Stage 6 cells [3]; DMSO versus Alk5i during Stage 6): remained similar | fraction of cells expressing pancreatic endocrine markers, including C-peptide (Stage 6 cells [3]; DMSO- versus Alk5i-treated cells, Stage 6): remained similar | insulin content (Stage 6 cells [3]; removal of Alk5i during Stage 6 versus treatment): increased with removal of Alk5i | insulin secretion after further 7 d in Stage 6 (Stage 5 cells; Alk5i during Stage 5, Stage 6 without Alk5i nor cluster resizing, 20 mM glucose): substantially higher in cells treated with Alk5i during Stage 5 | INS and GCG gene expression (Stage 5 cells; Alk5i omission during Stage 5): decreased with Alk5i omission | SST expression (Stage 5 cells; Alk5i omission during Stage 5): slightly increased | fraction of cells co-expressing C-peptide and NKX6-1 (Stage 5 cells; omitting Alk5i during Stage 5): decreased by omitting Alk5i | fraction of cells differentiated to a C-peptide+ phenotype (Stage 5 cells; omitting Alk5i during Stage 5): decreased by omitting Alk5i | fraction of cells differentiated to endocrine cells (CHGA+) (Stage 5 cells; omitting Alk5i during Stage 5): unchanged | expression of NKX6-1 and PDX1 (Stage 5 cells; without Alk5i during Stage 5): reduced without Alk5i
